Measured values published in patent publication US20240043404A1 (AbbVie Inc., priority 2009, published 2024).
Where two headings read alike, the source gives them in different places.

Columns and labels:
Bcl-2 = Bcl-2 (Homo sapiens (Human), UniProt P10415); assay: Time Resolved-Fluorescence Resonance Energy Transfer (TR-FRET) Bcl-2 binding assay; conditions: read-out: Bcl-2 FRET ki
Description: The samples are then mixed on a shaker for 1 minute and incubated for an additional 3 hours at room temperature. For each assay, the probe/antibody and protein/probe/antibody were included on each assay plate as negative and positive controls, respectively.
The samples were then mixed on a shaker for 1 minute and incubated for an additional 3 hours at room temperature. For each assay, the probe/antibody and protein/probe/antibody were included on each assay plate as negative and positive controls, respectively.

RS4;11 cells [1] = assay: RS4;11 cell viability assay (CellTiter Glo); format: cell-based, human; conditions: Homo sapiens, read-out: RS4;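 note: acute lymphoblastic leukemia line RS4,11, EC50 derived from percentage of viable cells after treatment relative to untreated controls, cell killing taken as a measure of Bcl-2 inhibition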
Description: The acute lymphoblastic leukemia (ALL) cell line RS4;11 was used as the primary human cell line to assess the cellular activity of Bcl-2 selective agents in vitro and their efficacy in vivo.
Cell cytotoxicity EC50 values were assessed using CellTiter Glo (Promega) according to the manufacturer's recommendations. The EC50 values were determined as a percentage of viable cells following treatment compared to the untreated control cells.

RS4;11 cells [2] = conditions: RS4;11 acute lymphoblastic leukemia cell line; cited from earlier work
[3] = RS4-11, 48 h, 50,000 cells per well, 10% human serum, 48 hours, 11 EC50 Values
[4] = RS4-11, Table 5, direct comparison Z=N with corresponding analogs Z=C, 11 EC50

Bcl-2, sequence (P10415 whole entry): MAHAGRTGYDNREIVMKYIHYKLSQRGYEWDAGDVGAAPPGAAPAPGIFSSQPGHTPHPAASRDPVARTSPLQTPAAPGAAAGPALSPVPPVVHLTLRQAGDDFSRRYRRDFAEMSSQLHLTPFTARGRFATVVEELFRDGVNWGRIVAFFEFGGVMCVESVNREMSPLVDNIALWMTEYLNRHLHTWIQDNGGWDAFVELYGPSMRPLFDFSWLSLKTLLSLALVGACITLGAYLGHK

Structure (SMILES): CC1(C)CCC(CN2CCN(c3ccc(C(=O)NS(=O)(=O)c4ccc(NC5CCN(C6CCOCC6)CC5)c([N+](=O)[O-])c4)c(Oc4ccc5[nH]ccc5c4)c3)CC2)=C(c2ccc(Cl)cc2)C1 [Example 89, 4-(4-{[2-(4-chlorophenyl)-4,4-dimethylcyclohex-1-en-1-yl]methyl}piperazin-1-yl)-2-(1H-indol-5-yloxy)-N-({3-nitro-4-[(1-tetrahydro-2H-pyran-4-ylpiperidin-4-yl)amino]phenyl}sulfonyl)benzamide]
- Ki (Bcl-2): 0.074 nM
- EC50 (RS4;11 cells [1]; [3]): 64.5 nM
- EC50 (RS4;11 cells [1]; [4]): 64 nM

Structure (SMILES): CC1(C)CCC(CN2CCN(c3ccc(C(=O)NS(=O)(=O)c4ccc(N[C@H]5CC[C@H](N6CCOCC6)CC5)c([N+](=O)[O-])c4)c(Oc4cnc5[nH]ccc5c4)c3)CC2)=C(c2ccc(Cl)cc2)C1 [Example 9, Trans-4-(4-{[2-(4-chlorophenyl)-4,4-dimethylcyclohex-1-en-1-yl]methyl}piperazin-1-yl)-N-({4-[(4-morpholin-4-ylcyclohexyl)amino]-3-nitrophenyl}sulfonyl)-2-(1H-pyrrolo[2,3-b]pyridin-5-yloxy)benzamide]
- Ki (Bcl-2; Table 5, direct comparison Z=N with corresponding analogs Z=C): < 0.01 nM
- EC50 (RS4;11 cells [1]; [3]): 14.8 nM
- EC50 (RS4;11 cells [1]; [4]): 15 nM

Structure (SMILES): CN(C)CC[C@H](CSc1ccccc1)Nc1ccc(S(=O)(=O)NC(=O)c2ccc(N3CCN(Cc4ccccc4-c4ccc(Cl)cc4)CC3)cc2)cc1[N+](=O)[O-] [ABT-737, N-(4-(4-((4′-chloro(1,1′-biphenyl)-2-yl)methyl)piperazin-1-yl)benzoyl)-4-(((1R)-3-(dimethylamino)-1-((phenylsulfanyl)methyl)propyl)amino)-3-nitrobenzenesulfonamide]
- sensitivity of RS4;11 cells to inhibitor (RS4;11 cells [2]): sensitive
